Like-named read-outs stand apart in the source and are kept apart here.
Molecular target: T1, rat mGluR5 receptor (Rattus norvegicus, UniProt P31424)
T1 construct: expressed in transfected cells; host or cells: HEK-293
Experiment: [3H]-MPEP displacement binding assay, HEK-293 cell membranes expressing rat mGluR5
Settings: for inhibition at 10 µM: read-out: PCT INHIB (%) @ 10 μM; for Ki: read-out: Median Ki
Summary of the method: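 Membranes from HEK-293 cells expressing rat mGluR5 (12-25 μg protein), incubated 60 min at room temperature with 4 nM [3H]-MPEP in 50 mM Tris pH 7.5, then filtered. Nonspecific binding defined with 10 μM MPEP.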

[1] = @ 10 μM compound, Biological Activity, Table 2A
[2] = single point, @ 10 μM compound, Table 3A

T1 sequence (P31424 21-1203): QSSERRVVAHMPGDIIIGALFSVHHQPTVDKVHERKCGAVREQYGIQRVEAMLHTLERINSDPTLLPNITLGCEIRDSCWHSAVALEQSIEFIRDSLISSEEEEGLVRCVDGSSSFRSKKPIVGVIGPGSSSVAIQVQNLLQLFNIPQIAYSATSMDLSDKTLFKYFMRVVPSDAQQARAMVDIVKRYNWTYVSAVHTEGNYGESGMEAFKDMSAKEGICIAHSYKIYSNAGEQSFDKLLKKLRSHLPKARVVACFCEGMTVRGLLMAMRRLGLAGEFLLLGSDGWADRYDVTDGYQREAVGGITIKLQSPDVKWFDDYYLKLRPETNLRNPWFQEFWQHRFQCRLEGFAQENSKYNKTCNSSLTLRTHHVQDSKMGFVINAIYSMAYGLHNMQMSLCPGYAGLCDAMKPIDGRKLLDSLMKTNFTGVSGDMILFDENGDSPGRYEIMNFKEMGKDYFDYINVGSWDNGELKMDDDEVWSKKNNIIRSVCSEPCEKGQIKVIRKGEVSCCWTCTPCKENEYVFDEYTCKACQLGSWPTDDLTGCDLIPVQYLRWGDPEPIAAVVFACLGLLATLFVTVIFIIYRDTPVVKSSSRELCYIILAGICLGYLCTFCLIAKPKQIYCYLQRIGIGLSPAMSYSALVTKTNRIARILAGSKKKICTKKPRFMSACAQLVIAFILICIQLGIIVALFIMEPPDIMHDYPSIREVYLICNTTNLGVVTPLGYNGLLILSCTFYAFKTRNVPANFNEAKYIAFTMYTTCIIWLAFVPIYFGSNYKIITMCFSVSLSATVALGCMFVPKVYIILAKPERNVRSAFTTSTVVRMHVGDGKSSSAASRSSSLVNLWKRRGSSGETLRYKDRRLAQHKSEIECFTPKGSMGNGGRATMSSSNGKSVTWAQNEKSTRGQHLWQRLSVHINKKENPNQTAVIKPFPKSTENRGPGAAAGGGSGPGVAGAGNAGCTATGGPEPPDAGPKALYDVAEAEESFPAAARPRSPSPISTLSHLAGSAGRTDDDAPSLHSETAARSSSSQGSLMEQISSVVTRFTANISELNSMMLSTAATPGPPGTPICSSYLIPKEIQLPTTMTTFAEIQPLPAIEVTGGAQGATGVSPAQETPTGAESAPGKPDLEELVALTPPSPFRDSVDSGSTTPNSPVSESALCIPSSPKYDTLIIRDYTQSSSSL

| Compound | inhibition at 10 µM [1] | inhibition at 10 µM [2] | other results |
| --- | --- | --- | --- |
| O=C(c1cncc(C#Cc2ccccc2)c1)N1CCN(c2ccc(C(F)(F)F)cn2)CC1 [Compound 132, 1-{[5-(phenylethynyl)pyridin-3-yl]carbonyl}-4-[5-(trifluoromethyl)pyridin-2-yl]piperazine] | 0% | – | – |
| Cc1ccnc(N2CCN(C(=O)c3cncc(C#Cc4ccccc4)c3)CC2)c1 [Compound 133, 1-(4-methylpyridin-2-yl)-4-{[5-(phenylethynyl)pyridin-3-yl]carbonyl}piperazine] | 52% | – | Ki (Biological Activity, Table 2A): 0.651 µM |
| O=C(c1cncc(C#Cc2ccccc2)c1)N1CCN(c2ncccc2C(F)(F)F)CC1 [Compound 134, 1-{[5-(phenylethynyl)pyridin-3-yl]carbonyl}-4-[3-(trifluoromethyl)pyridin-2-yl]piperazine] | 0% | – | – |
| N#Cc1cccnc1N1CCN(C(=O)c2cncc(C#Cc3ccccc3)c2)CC1 [Compound 135, 2-(4-{[5-(phenylethynyl)pyridin-3-yl]carbonyl}piperazin-1-yl)nicotinonitrile] | 28% | – | – |
| Cc1cc(C)nc(N2CCN(C(=O)c3cncc(C#Cc4ccccc4)c3)CC2)n1 [Compound 136, 4,6-dimethyl-2-(4-{[5-(phenylethynyl)pyridin-3-yl]carbonyl}piperazin-1-yl)pyrimidine] | 0% | – | – |
| O=C(c1cncc(C#Cc2ccccc2)c1)N1CCN(c2cnccn2)CC1 [Compound 137, 2-(4-{[5-(phenylethynyl)pyridin-3-yl]carbonyl}piperazin-1-yl)pyrazine] | 32% | – | – |
| O=C(c1cncc(C#Cc2ccccc2)c1)N1CCN(c2ccncc2)CC1 [Compound 138, 1-{[5-(phenylethynyl)pyridin-3-yl]carbonyl}-4-pyridin-4-ylpiperazine] | 0% | – | – |
| N#Cc1cccnc1N1CCN(C(=O)c2ccnc(C#Cc3ccccc3)c2)CC1 [Compound 139, 2-{4-[2-(phenylethynyl)isonicotinoyl]piperazin-1-yl}nicotinonitrile] | 40% | – | – |
| Cc1cc(C)nc(N2CCN(C(=O)c3ccnc(C#Cc4ccccc4)c3)CC2)n1 [Compound 140, 4,6-dimethyl-2-{4-[2-(phenylethynyl)isonicotinoyl]piperazin-1-yl}pyrimidine] | 37% | – | – |
| N#Cc1cccnc1N1CCN(C(=O)c2cccc(C#Cc3ccccc3)c2)CC1 [Compound 141, 2-{4-[3-(phenylethynyl)benzoyl]piperazin-1-yl}nicotinonitrile] | 78% | – | Ki (Biological Activity, Table 2A): 1.09 µM |
| O=C(c1cccc(C#Cc2ccccc2)c1)N1CCN(c2ccncc2)CC1 [Compound 142, 1-[3-(phenylethynyl)benzoyl]-4-pyridin-4-ylpiperazine] | 53% | – | – |
| Cc1cccc(N2CCN(C(=O)c3cncc(C#Cc4ccccc4)c3)CC2)n1 [Compound 143, 1-(6-methylpyridin-2-yl)-4-{(5-(phenylethynyl)pyridin-3-yl]carbonyl}piperazine] | 49% | – | – |
| O=C(c1ccnc(C#Cc2ccccc2)c1)N1CCN(c2ccncc2)CC1 [Compound 144, 1-[2-(phenylethynyl)isonicotinoyl]-4-pyridin-4-ylpiperazine] | 10% | – | – |
| COc1ccc(C(=O)N2CCN(c3ccncc3)CC2)cc1C#Cc1ccccc1 [Compound 145, 1-[4-methoxy-3-(phenylethynyl)benzoyl]-4-pyridin-4-ylpiperazine] | 91% | – | Ki (Biological Activity, Table 2A): 1.3 µM |
| O=C(c1cccc(C#Cc2ccccn2)c1)N1CCN(c2ncccc2C(F)(F)F)CC1 [Compound 146, 1-[3-(pyridin-2-ylethynyl)benzoyl]-4-[3-(trifluoromethyl)pyridin-2-yl]piperzine] | – | – | PCT INHIB (%) @ 10 μM [1]: 48% |
| Cc1cccc(N2CCN(C(=O)c3cccc(C#Cc4ccccn4)c3)CC2)n1 [Compound 147, 1-(6-methylpyridin-2-yl)-4-[3-(pyridin-2-ylethynyl)benzoyl]piperazine] | 80% | – | Ki (Biological Activity, Table 2A): 3.02 µM |

| Compound | inhibition at 10 µM [1] | inhibition at 10 µM [2] | other results |
| --- | --- | --- | --- |
| N#Cc1cccnc1N1CCN(C(=O)c2cccc(C#Cc3ccccn3)c2)CC1 [Compound 148] | 74% | – | Ki (Biological Activity, Table 2A): 1.63 µM |
| O=C(c1cccc(C#Cc2ccccn2)c1)N1CCN(c2ncc(C(F)(F)F)cc2Cl)CC1 [Compound 149, 1-[3-chloro-5-(trifluoromethyl)pyridin-2-yl]-4-[3-(pyridin-2-ylethynyl)benzoyl]piperazine] | 72% | – | Ki (Biological Activity, Table 2A): 2.76 µM |
| Cc1cccc(COc2cccc(C(=O)N3CCN(c4ccccn4)CC3)c2)c1 [Compound 150, 1-{3-[(3-methylbenzyl)oxy]benzoyl}-4-pyridin-2-ylpiperazine] | – | 0% | – |
| COc1ccc(C(=O)N2CCN(c3ccccn3)CC2)cc1OCc1cccc(C)c1 [Compound 151, 1-{4-methoxy-3-[(3-methylbenzyl)oxy]benzoyl}-4-pyridin-2-ylpiperazine] | – | 0% | – |
| O=C(c1cccc(OCc2ccccc2)c1)N1CCN(c2ccccn2)CC1 [Compound 152, 1-[3-(benzyloxy)benzoyl]-4-pyridin-2-ylpiperazine] | – | 0% | – |
| O=C(c1cccc(OCc2cccc(Br)c2)c1)N1CCN(c2ccccn2)CC1 [Compound 153, 1-{3-[(3-bromobenzyl)oxy]benzoyl}-4-pyridin-2-ylpiperazine] | – | 23% | – |
| O=C(c1cccc(OCc2cccc(Cl)c2)c1)N1CCN(c2ccccn2)CC1 [Compound 154, 1-{3-[(3-chlorobenzyl)oxy]benzoyl}-4-pyridin-2-ylpiperazine] | – | 36% | – |
| COc1cccc(COc2cccc(C(=O)N3CCN(c4ccccn4)CC3)c2)c1 [Compound 155, 1-{3-[(3-methoxybenzyl)oxy]benzoyl}-4-pyridin-2-ylpiperazine] | – | 0% | – |
| N#Cc1cccc(COc2cccc(C(=O)N3CCN(c4ccccn4)CC3)c2)c1 [Compound 156, 3-({3-[(4-pyridin-2-ylpiperazin-1-yl)carbonyl]phenoxy}methyl)benzonitrile] | – | 0% | – |
| O=C(c1cccc(OCc2cccc(F)c2)c1)N1CCN(c2ccccn2)CC1 [Compound 157, 1-{3-[(3-fluorobenzyl)oxy]benzoyl}-4-pyridin-2-ylpiperazine] | – | 18% | – |
| COc1ccc(C(=O)N2CCN(c3ccccn3)CC2)cc1OCc1ccccc1 [Compound 158, 1-[3-(benzyloxy)-4-methoxybenzoyl]-4-pyridin-2-ylpiperazine] | – | 0% | – |
| COc1ccc(C(=O)N2CCN(c3ccccn3)CC2)cc1OCc1cccc(Br)c1 [Compound 159, 1-{3-[(3-bromobenzyl)oxy]-4-methoxybenzoyl}-4-pyridin-2-ylpiperazine] | – | 26% | – |
| COc1ccc(C(=O)N2CCN(c3ccccn3)CC2)cc1OCc1cccc(Cl)c1 [Compound 160, 1-{3-[(3-chlorobenzyl)oxy]-4-methoxybenzoyl}-4-pyridin-2-ylpiperazine] | – | 11% | – |
| COc1cccc(COc2cc(C(=O)N3CCN(c4ccccn4)CC3)ccc2OC)c1 [Compound 161, 1-{4-methoxy-3-[(3-methoxybenzyl)oxy]benzoyl}-4-pyridin-2-ylpiperazine] | – | 0% | – |
| COc1ccc(C(=O)N2CCN(c3ccccn3)CC2)cc1OCc1cccc(C#N)c1 [Compound 162, 3-({2-methoxy-5-[(4-pyridin-2-ylpiperazin-1-yl)carbonyl]phenoxy}methyl)benzonitrile] | – | 0% | – |
